{"source": "paper PMC9963398", "about": "“Discovery of New Quinolone-Based Diarylamides as Potent B-RAF^V600E/C-RAF Kinase Inhibitors Endowed with Promising In Vitro Anticancer Activity” (International Journal of Molecular Sciences, 2023)", "key": {"[1]": {"molecular_target": "T1, B-RAF^V600E (Homo sapiens, UniProt P15056, V600E)", "T1 construct": "purchased Reaction Biology Corporation (RBC), Kinase HotSpot service", "T1 sequence (P15056 whole entry V600E)": "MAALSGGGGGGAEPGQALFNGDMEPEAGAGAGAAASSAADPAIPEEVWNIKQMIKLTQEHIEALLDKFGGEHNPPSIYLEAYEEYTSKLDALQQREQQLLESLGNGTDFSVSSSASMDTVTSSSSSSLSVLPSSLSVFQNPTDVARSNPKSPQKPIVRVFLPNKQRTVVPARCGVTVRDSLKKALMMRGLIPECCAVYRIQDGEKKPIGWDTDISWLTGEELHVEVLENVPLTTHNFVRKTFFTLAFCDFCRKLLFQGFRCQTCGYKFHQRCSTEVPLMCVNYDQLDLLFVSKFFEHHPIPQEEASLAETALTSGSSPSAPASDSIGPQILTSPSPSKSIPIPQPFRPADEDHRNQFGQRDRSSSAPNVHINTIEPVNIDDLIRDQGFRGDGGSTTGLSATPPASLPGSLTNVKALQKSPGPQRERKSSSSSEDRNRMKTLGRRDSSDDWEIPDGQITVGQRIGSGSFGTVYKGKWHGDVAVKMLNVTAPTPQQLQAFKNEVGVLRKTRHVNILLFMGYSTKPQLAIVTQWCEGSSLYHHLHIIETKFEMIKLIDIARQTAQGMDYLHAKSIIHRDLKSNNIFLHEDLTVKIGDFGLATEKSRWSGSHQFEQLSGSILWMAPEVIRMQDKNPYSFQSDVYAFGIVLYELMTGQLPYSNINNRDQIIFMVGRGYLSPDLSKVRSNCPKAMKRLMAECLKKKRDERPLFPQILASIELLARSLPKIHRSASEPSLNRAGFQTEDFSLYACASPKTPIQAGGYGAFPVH", "test": "HotSpot kinase assay (RBC), B-RAF^V600E", "type": "biochemical", "conditions": "10 µM ATP, 10-dose singlicate IC50 mode"}, "[2]": {"molecular_target": "T2, B-RAF^V600K (Homo sapiens, UniProt P15056, V600K)", "T2 construct": "purchased Reaction Biology Corporation (RBC), Kinase HotSpot service", "T2 sequence (P15056 whole entry V600K)": "as the sequence (P15056 whole entry V600E) above, with E600K counted along it", "test": "HotSpot kinase assay (RBC), B-RAF^V600K", "type": "biochemical", "conditions": "10 µM ATP", "procedure": "To gain insight into the inhibitory mode of this new array of quinolines, 18a was tested at 1 µM concentration of ATP to compare it with its IC50 at 10 µM (Table 2)."}, "[3]": {"test_system": "A498", "test": "NCI-60 five-dose SRB assay", "type": "cell-based", "conditions": "Homo sapiens; A498, Renal cancer, five-dose test", "how_it_was_run": "(§1)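 Read-out: sulforhodamine B protein stain. The testing was done in-house at NCI over all 60 human cancer lines following the standard screening protocol.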"}, "[4]": {"test_system": "A549/ATCC", "test": "NCI-60 five-dose SRB assay", "type": "cell-based", "conditions": "Homo sapiens, NSCL cancer, five-dose test", "how_it_was_run": "as §1"}, "[5]": {"test_system": "HOP-62", "test": "NCI-60 five-dose SRB assay", "type": "cell-based", "conditions": "Homo sapiens; HOP-62, NSCL cancer, five-dose test", "how_it_was_run": "as §1"}, "[6]": {"test_system": "HT29", "test": "NCI-60 five-dose SRB assay", "type": "cell-based", "conditions": "Homo sapiens, HT-29; HT29, Colon cancer, five-dose test", "how_it_was_run": "as §1"}, "[7]": {"test_system": "K-562", "test": "NCI-60 five-dose SRB assay", "type": "cell-based", "conditions": "Homo sapiens, K562; K-562, Leukemia, five-dose test", "how_it_was_run": "as §1"}, "[8]": {"test_system": "MOLT-4", "test": "NCI-60 five-dose SRB assay", "type": "cell-based", "conditions": "Homo sapiens; MOLT-4, Leukemia, five-dose test", "how_it_was_run": "as §1"}, "[9]": {"test_system": "NCI-H226", "test": "NCI-60 five-dose SRB assay", "type": "cell-based", "conditions": "Homo sapiens; NCI-H226, NSCL cancer, five-dose test", "how_it_was_run": "as §1"}, "[10]": {"test_system": "NCI-H23", "test": "NCI-60 five-dose SRB assay", "type": "cell-based", "conditions": "Homo sapiens; NCI-H23, NSCL cancer, five-dose test", "how_it_was_run": "as §1"}, "[11]": {"test_system": "NCI/ADR-RES", "test": "NCI-60 five-dose SRB assay", "type": "cell-based", "conditions": "Homo sapiens, Ovarian cancer, five-dose test", "how_it_was_run": "as §1"}, "[12]": {"test_system": "RPMI-8226", "test": "NCI-60 five-dose SRB assay", "type": "cell-based", "conditions": "Homo sapiens; RPMI-8226, Leukemia, five-dose test", "how_it_was_run": "as §1"}, "[13]": {"test_system": "RXF 393", "test": "NCI-60 five-dose SRB assay", "type": "cell-based", "conditions": "Homo sapiens; RXF 393, Renal cancer, five-dose test", "how_it_was_run": "as §1"}, "[14]": {"test_system": "SK-MEL-2", "test": "NCI-60 five-dose SRB assay", "type": "cell-based", "conditions": "Homo sapiens; SK-MEL-2, Melanoma, five-dose test", "how_it_was_run": "as §1"}, "[15]": {"test_system": "SNB-19", "test": "NCI-60 five-dose SRB assay", "type": "cell-based", "conditions": "Homo sapiens; SNB-19, CNS cancer, five-dose test", "how_it_was_run": "as §1"}, "[16]": {"test_system": "UACC-62", "test": "NCI-60 five-dose SRB assay", "type": "cell-based", "conditions": "Homo sapiens; UACC-62, Melanoma, five-dose test", "how_it_was_run": "as §1"}, "[17]": {"test_system": "MDA-MB-231/ATCC", "test": "cells", "conditions": "Homo sapiens", "procedure": "(§2) The anticancer screening of target compounds over a full panel of 60 human cancer cell lines was carried out using Sulforhodamine B (SRB) assay at the National Cancer Institute (NCI), Bethesda, Maryland, USA, employing the standard protocol."}, "[18]": {"test_system": "MDA-MB-468", "test": "cells", "conditions": "Homo sapiens", "procedure": "as §2"}, "[19]": {"test_system": "PC-3", "test": "cells", "conditions": "Homo sapiens", "procedure": "as §2"}, "[20]": {"test_system": "NCI-60 human cancer cell lines", "test": "NCI-60 single dose (10 µM) testing", "type": "cell-based", "conditions": "single dose 10 µM", "procedure": "Encouraged by the promising results in the cell-free assay, the antiproliferative activity of all final compounds was evaluated by the National Cancer Institute (NCI) in a single dose of 10 µM over a library of 60 human cancer cell lines representing nine cancer types; leukemia, non-small cell lung (NSCL), colon, central nervous system (CNS), melanoma, ovarian, renal, prostate, and breast cancer."}, "[21]": {"test_system": "NCI-60 human tumor cell lines", "test": "NCI-60 five-dose testing, ranges over panel or subpanel", "type": "cell-based", "procedure": "as §2"}, "[22]": {"molecular_target": "C-RAF (Homo sapiens, UniProt P04049)", "sequence (P04049 whole entry)": "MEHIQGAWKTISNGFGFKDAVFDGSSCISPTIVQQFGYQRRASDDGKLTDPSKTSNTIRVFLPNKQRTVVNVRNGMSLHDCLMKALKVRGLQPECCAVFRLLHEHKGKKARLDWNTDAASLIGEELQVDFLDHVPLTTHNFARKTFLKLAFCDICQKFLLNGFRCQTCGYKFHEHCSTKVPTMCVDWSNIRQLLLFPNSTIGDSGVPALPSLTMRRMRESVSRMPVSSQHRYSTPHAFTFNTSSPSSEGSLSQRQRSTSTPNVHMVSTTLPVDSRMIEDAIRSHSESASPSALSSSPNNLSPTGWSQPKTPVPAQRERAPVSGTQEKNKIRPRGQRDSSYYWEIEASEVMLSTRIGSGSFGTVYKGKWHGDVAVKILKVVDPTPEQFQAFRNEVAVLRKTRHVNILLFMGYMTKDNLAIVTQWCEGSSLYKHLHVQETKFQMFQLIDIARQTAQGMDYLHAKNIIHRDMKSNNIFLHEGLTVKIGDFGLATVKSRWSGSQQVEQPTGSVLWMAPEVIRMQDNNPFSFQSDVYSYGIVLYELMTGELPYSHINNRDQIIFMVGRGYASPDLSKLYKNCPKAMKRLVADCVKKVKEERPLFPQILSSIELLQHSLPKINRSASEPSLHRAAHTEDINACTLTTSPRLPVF", "test": "HotSpot kinase assay (RBC), C-RAF", "conditions": "IC50 C-RAF, 10 µM ATP, 10-dose singlicate IC50 mode", "source_text": "Reaction Biology Corporation (RBC) Kinase HotSpotSM service was utilized for cell-free biochemical kinase evaluation of the target compounds according to the reported assay protocol [46]."}, "[23]": {"test_system": "MOLT-4", "design": "method as in PMID 32745753", "conditions": "MOLT-4, Leukemia; cited from earlier work"}, "[24]": {"test_system": "A549/ATCC", "design": "method as in PMID 32745753", "conditions": "NSCL cancer; cited from earlier work"}, "[25]": {"test_system": "EKVX", "design": "method as in PMID 32745753", "conditions": "NSCL cancer; cited from earlier work"}, "[26]": {"test_system": "NCI-H522", "design": "method as in PMID 32745753", "conditions": "NCI-H522, NSCL cancer; cited from earlier work"}, "[27]": {"test_system": "KM12", "design": "method as in PMID 32745753", "conditions": "KM12, Colon cancer; cited from earlier work"}, "[28]": {"test_system": "SF-295", "design": "method as in PMID 32745753", "conditions": "SF-295, CNS cancer; cited from earlier work"}, "[29]": {"test_system": "UACC-257", "design": "method as in PMID 32745753", "conditions": "UACC-257, Melanoma; cited from earlier work"}, "[30]": {"test_system": "SK-OV-3", "design": "method as in PMID 32745753", "conditions": "SK-OV-3, Ovarian cancer; cited from earlier work"}, "[31]": {"test_system": "UO-31", "design": "method as in PMID 32745753", "conditions": "UO-31, Renal cancer; cited from earlier work"}, "[32]": {"test_system": "HS 578T", "design": "method as in PMID 32745753", "conditions": "Breast cancer; cited from earlier work"}, "[33]": {"test_system": "BT-549", "design": "method as in PMID 32745753", "conditions": "BT-549, Breast cancer; cited from earlier work"}, "[34]": {"test_system": "MDA-MB-468", "conditions": "MDA-MB-468, Breast cancer; cited from earlier work"}}, "note": "Like-named read-outs stand apart in the source and are kept apart here.", "data": [{"smiles": "CN1CCCN(Cc2ccc(C(=O)Nc3cccc(Nc4ccc5c(O)cccc5n4)c3)cc2C(F)(F)F)CC1", "note": "[Compound 17b, N-(3-((5-hydroxyquinolin-2-yl)amino)phenyl)-4-((4-methyl-1,4-diazepan-1-yl)methyl)-3-(trifluoromethyl)benzamide]", "values": [{"measurement": "IC50", "setting": "[1]", "result": "0.128 ± 5e-05", "unit": "µM"}, {"measurement": "IC50", "setting": "[2]", "result": "0.0616 ± 0.001", "unit": "µM"}, {"measurement": "GI50", "setting": "[3]", "result": 15.3, "unit": "µM"}, {"measurement": "GI50", "setting": "[4]", "result": 3.63, "unit": "µM"}, {"measurement": "GI50", "setting": "[5]", "result": 2.03, "unit": "µM"}, {"measurement": "GI50", "setting": "[6]", "result": 1.92, "unit": "µM"}, {"measurement": "GI50", "setting": "[7]", "result": 2.18, "unit": "µM"}, {"measurement": "GI50", "setting": "[8]", "result": 2.11, "unit": "µM"}, {"measurement": "GI50", "setting": "[9]", "result": 16.7, "unit": "µM"}, {"measurement": "GI50", "setting": "[10]", "result": 1.78, "unit": "µM"}, {"measurement": "GI50", "setting": "[11]", "result": 6.43, "unit": "µM"}, {"measurement": "GI50", "setting": "[12]", "result": 2.89, "unit": "µM"}, {"measurement": "GI50", "setting": "[13]", "result": 1.85, "unit": "µM"}, {"measurement": "GI50", "setting": "[14]", "result": 1.81, "unit": "µM"}, {"measurement": "GI50", "setting": "[15]", "result": 2.03, "unit": "µM"}, {"measurement": "GI50", "setting": "[16]", "result": 1.69, "unit": "µM"}, {"measurement": "GI50", "setting": "[17]", "result": 1.65, "unit": "µM"}, {"measurement": "GI50", "setting": "[18]", "result": 1.66, "unit": "µM"}, {"measurement": "GI50", "setting": "[19]", "result": 1.87, "unit": "µM"}, {"measurement": "growth percent", "setting": "[20]; MALME-3M, MDA-MB-435, SK-MEL-2, and UACC-62", "result": "less than -90"}, {"measurement": "growth percent", "setting": "[20]; melanoma LOX IMVI, SK-MEL-28, and SK-MEL-5", "result": "−100"}, {"measurement": "growth percent", "setting": "[20]; melanoma SK-MEL-29, SK-MEL-5, and UACC-62", "result": "under −90%"}, {"measurement": "GI50", "setting": "[21]; Homo sapiens, MOLT-4, all leukemia cell lines, except MOLT-4", "result": "> 2", "unit": "µM"}, {"measurement": "GI50", "setting": "[21]; Homo sapiens, colon cancer cell lines, range over lines", "result": "< 2", "unit": "µM"}, {"measurement": "GI50", "setting": "[21]; Homo sapiens, melanoma cell lines, range over lines", "result": "1.6 to 1.89", "unit": "µM"}, {"measurement": "GI50", "setting": "[21]; melanoma cell lines, range over lines", "result": "< 2", "unit": "µM"}, {"measurement": "IC50", "setting": "[22]", "result": "0.0653 ± 0.0006", "unit": "µM"}]}, {"smiles": "CNC(=O)c1cc(Oc2ccc(NC(=O)Nc3ccc(Cl)c(C(F)(F)F)c3)cc2)ccn1", "note": "[Sorafenib]", "values": [{"measurement": "GI50", "setting": "[23]", "result": 2.9, "unit": "µM"}, {"measurement": "GI50", "setting": "[24]", "result": 2.9, "unit": "µM"}, {"measurement": "GI50", "setting": "[25]", "result": 2.5, "unit": "µM"}, {"measurement": "GI50", "setting": "[26]", "result": 2.1, "unit": "µM"}, {"measurement": "GI50", "setting": "[27]", "result": 1.6, "unit": "µM"}, {"measurement": "GI50", "setting": "[28]", "result": 1.6, "unit": "µM"}, {"measurement": "GI50", "setting": "[29]", "result": 2.2, "unit": "µM"}, {"measurement": "GI50", "setting": "[30]", "result": 2.3, "unit": "µM"}, {"measurement": "GI50", "setting": "[31]", "result": 2.6, "unit": "µM"}, {"measurement": "GI50", "setting": "[32]", "result": 2.6, "unit": "µM"}, {"measurement": "GI50", "setting": "[33]", "result": 3.3, "unit": "µM"}, {"measurement": "GI50", "setting": "[34]", "result": 2, "unit": "µM"}]}]}
